Experimental findings from US10399949B2, “NK1 receptor antagonist” (KISSEI PHARMACEUTICAL CO., LTD., priority 2015, dated 2019) are described below.

In test [1] the target is T1, human NK1 receptor (Homo sapiens, UniProt P25103).
T1 construct: expressed in transfected cells; host or cells: 293T cells (RIKEN), transient transfection with pcDNA3.1(-) plasmid
Kind of test: Affinity for human NK1 receptor (125I-substance P receptor binding test, membrane fraction). The conditions noted are these: membrane fraction of human NK1 receptor-expressing 293T cells, room temperature 60 minutes, read-out: pIC50 (inverse logarithm of the concentration required for 50% inhibition of 125I-substance P binding) (converted). The method, then: Affinity for Human NK1 Receptor
(3) Measurement of Binding Affinity to Human NK1 Receptor
(3-1) Preparation of Membrane Fraction from Human NK1 Receptor-Expressing Cells
Human NK1 receptor-expressing cells were prepared in a 175 cm^2 culture flask (Nippon Becton Dickinson). The formation of a complex of the human NK1 receptor expression plasmid and Lipofectamine 2000 was performed by calculating the culture area ratio and increasing the scale of the method described in the above 2-4 by the ratio. The human NK1 receptor-expressing cells were collected in a buffer solution for the membrane fraction preparation (50 mM Tris (Wako Pure Chemical), 120 mM sodium chloride (Wako Pure Chemical Industries), 5 mM potassium chloride (Wako Pure Chemical Industries), 1 mM ethylenediaminetetraacetic acid (Sigma), 0.002 mg/mL chymostatin (Peptide Institute), 0.04 mg/bacitracin (Wako Pure Chemical Industries), 0.005 mg/mL phosphoramidon (Peptide Institute) and 0.5 mM phenylmethylsulfonyl fluoride (Wako Pure Chemical Industries), pH7.4) and centrifuged at 1,880 g for 10 minutes, and the cell sediment was suspended in the buffer solution for the membrane fraction preparation. After freezing and thawing the cells once, the cells were homogenized using a Dounce-type homogenizer (cooled on ice, 1000 rpm, 20 times). The homogenized cell suspension was centrifuged at 20,000 rpm for 10 minutes, and the supernatant was removed to obtain cell sediment. The cell sediment was suspended again in the buffer solution for the membrane fraction preparation and homogenized using a Dounce-type homogenizer (cooled on ice, 1000 rpm, 30 times). The cell suspension was centrifuged at 20,000 rpm for 10 minutes, and the supernatant was removed to obtain cell sediment. The same homogenization and centrifugation were repeated again, and final cell sediment was obtained. The final cell sediment was suspended in a buffer solution for the receptor binding test (50 mM Tris (Wako Pure Chemical Industries), 3 mM manganese chloride (Wako Pure Chemical Industries), 0.002 mg/mL chymostatin (Peptide Institute), 0.04 mg/bacitracin (Wako Pure Chemical Industries) and 0.02% bovine serum albumin (Sigma), pH 7.4), and the protein concentration was measured using BCA Protein Assay Kit (Pierce).
(3-2) Receptor Binding Test
The buffer solution for the receptor binding test was dispensed to the wells of a 96-well assay plate (Greiner) at 22.5 μL/well. DMSO solutions of a test compound, which were prepared at an 80-time higher concentration using 100% dimethyl sulfoxide (DMSO), were added to the wells at 2.5 μL/well (final concentrations of 1 nM to 100 nM), and the solutions were mixed. As a radiolabeled ligand, ^125I-substance P (Substance P, [^125I]Tyr^8-, PerkinElmer) was used. ^125I-substance P was diluted with the buffer solution for the receptor binding test to a concentration resulting in […] and added to the 96-well assay plate, and the solutions were mixed. The membrane fraction prepared from the human NK1 receptor-expressing cells was diluted with the buffer solution for the receptor binding test to a concentration resulting in 8 to 10 μg/well, suspended until the suspension became in such a homogenous state that the suspension could flow through a 27G injection needle smoothly and then added to the 96-well assay plate at 150 μL/well. Then, the plate was incubated at room temperature for 60 minutes while shaking the plate. […]

Test [2] concerns the target T1, human NK1 receptor. The test can be described thus: Inhibitory effect on human NK1 receptor (substance P-induced increase in intracellular calcium concentration). The format is cell-based. The conditions noted are these: HEK-293T; substance P 0.1 μM; compound 1 μM; human NK1 receptor-expressing 293T cells; vehicle = 100%; read-out: SPRR (%) (Substance P-Response Remaining, intracellular calcium concentration). The method, then:
Inhibitory Effect on Human NK1 Receptor
(1) Preparation of Human NK1 Receptor-Expressing Cells
Human NK1 receptor-expressing cells were prepared by the same methods as those described in 2-3 and 2-4 of Test Example 1.
(2) Study on Inhibitory Effect on Increase in Intracellular Calcium Concentration
The human NK1 receptor-expressing cells were washed with 300 μL/well of a washing solution (20 mM HEPES/Hanks Balanced Salt Solution (HBSS) pH7.3). A fluorescent calcium indicator (Fluo-4 Direct Calcium Assay Kit, Life Technologies, containing 0.42 mM probenecid and 0.1% bovine serum albumin, prepared according to the protocol of the product) was added to the wells at 150 μL/well, and the plate was incubated at 37° C. for 30 minutes in an incubator. Then, DMSO solutions of a test compound, which were prepared at an 80-time higher concentration using 100% dimethyl sulfoxide (DMSO), were added to the wells at 2.5 μL/well (final concentrations of 0.1, 1 and 10 μM), and the solutions were mixed. Then, the plate was further incubated at 37° C. for 30 minutes in an incubator. After 30 minutes, the intracellular calcium concentrations were measured immediately.
The intracellular calcium concentrations were each measured as a fluorescent signal using FDSS® 7000 (Hamamatsu Photonics). A substance P (Peptide Institute, Inc.) solution which was prepared at 0.4 μM or 4 μM using an assay buffer (20 mM HEPES/Hanks Balanced Salt Solution (HBSS) pH 7.3 containing 0.1% bovine serum albumin) was added automatically to each well at 50 μL/well (final concentration of 0.1 or 1 μM) 10 seconds after starting reading, and the fluorescent signal was measured up to 120 seconds.
The intracellular calcium concentration (%) of the cells to which a test compound was added was calculated by the equation below, where the fluorescent signal of the group to which the vehicle (DMSO) was added was regarded as 100%, and the fluorescent signal before the addition of substance P was regarded as 0%. Intracellular calcium concentration (%)=(Fluorescent signal of test compound addition group)/(Fluorescent signal of vehicle addition group)×100
The intracellular calcium concentration (%) calculated was regarded as the remaining agonist activity of substance P (Substance P-Response Remaining: SPRR). In the table, Ex. No. means the Example number. SPRR (%) means the value obtained when the concentration of substance P was 0.1 μM and the concentration of the compound was 1 μM.
(In general: Calcium assays in cells follow changes in intracellular calcium, usually with a dye or a luminescent sensor.)

T1 sequence (P25103 whole entry): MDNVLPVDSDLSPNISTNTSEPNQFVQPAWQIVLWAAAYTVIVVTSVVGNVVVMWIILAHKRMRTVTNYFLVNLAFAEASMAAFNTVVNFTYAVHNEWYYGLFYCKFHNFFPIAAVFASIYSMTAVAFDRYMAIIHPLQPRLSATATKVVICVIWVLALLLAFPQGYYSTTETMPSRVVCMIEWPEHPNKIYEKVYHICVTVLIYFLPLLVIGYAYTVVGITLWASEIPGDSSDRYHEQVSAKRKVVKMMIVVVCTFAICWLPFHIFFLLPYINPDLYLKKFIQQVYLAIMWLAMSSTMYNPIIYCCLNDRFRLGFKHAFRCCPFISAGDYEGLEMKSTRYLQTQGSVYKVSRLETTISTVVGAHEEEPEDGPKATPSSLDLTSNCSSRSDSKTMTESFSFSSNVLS

For the molecule `Cc1cc(F)ccc1[C@H]1CN(C2CCC(CC(=O)O)CC2)CCN1C(=O)N(C)[C@H](C)c1cc(C(F)(F)F)cc(C(F)(F)F)c1` (stereo partly drawn) [Example 1, {4-[(S)-4-{[(R)-1-(3,5-Bistrifluoromethylphenyl)ethyl]methylcarbamoyl}-3-(4-fluoro-2-methylphenyl)piperazin-1-yl]cyclohexyl}acetic acid], the IC50 at human NK1 receptor [1] was 2.24 nM. Moreover, the remaining activity at 1 µM on human NK1 receptor [2] was determined as 15%.

As for `Cc1cc(F)ccc1[C@H]1CN(C(=O)[C@H]2CC[C@@H](CC(=O)O)CC2)CCN1C(=O)N(C)[C@H](C)c1cc(C(F)(F)F)cc(C(F)(F)F)c1` [Example 2, cis-{4-[(S)-4-{[(R)-1-(3,5-Bistrifluoromethylphenyl)ethyl]methylcarbamoyl}-3-(4-fluoro-2-methylphenyl)piperazine-1-carbonyl]cyclohexyl}acetic acid], the IC50 at human NK1 receptor [1] was 1.38 nM. Further, the remaining activity at 1 µM at human NK1 receptor [2] was found to be 25%.

Take `Cc1cc(F)ccc1[C@H]1CN(C(=O)[C@H]2CC[C@H](CC(=O)O)CC2)CCN1C(=O)N(C)[C@H](C)c1cc(C(F)(F)F)cc(C(F)(F)F)c1` [Example 3, trans-{4-[(S)-4-{[(R)-1-(3,5-Bistrifluoromethylphenyl)ethyl]methylcarbamoyl}-3-(4-fluoro-2-methylphenyl)piperazine-1-carbonyl]cyclohexyl}acetic acid]: at human NK1 receptor [1], the IC50 is 1.41 nM. Moreover, the remaining activity at 1 µM at human NK1 receptor [2] was 50%.

As to `Cc1cc(F)ccc1[C@H]1CN(C2CCC(C(=O)O)CC2)CCN1C(=O)N(C)[C@H](C)c1cc(C(F)(F)F)cc(C(F)(F)F)c1` (stereo partly drawn) [Example 6, 4-[(S)-4-{[(R)-1-(3,5-Bistrifluoromethylphenyl)ethyl]methylcarbamoyl}-3-(4-fluoro-2-methylphenyl)piperazin-1-yl]cyclohexanecarboxylic acid], the IC50 at human NK1 receptor [1] was 1.7 nM. Also, the remaining activity at 1 µM on human NK1 receptor [2] worked out at 14%.

For the molecule `Cc1cc(F)ccc1[C@H]1CN(C[C@H]2CC[C@@H](C(=O)O)CC2)CCN1C(=O)N(C)[C@H](C)c1cc(C(F)(F)F)cc(C(F)(F)F)c1` [Example 7, cis-4-[(S)-4-{[(R)-1-(3,5-Bistrifluoromethylphenyl)ethyl]methylcarbamoyl}-3-(4-fluoro-2-methylphenyl)piperazin-1-ylmethyl]cyclohexanecarboxylic acid], the IC50 on human NK1 receptor [1] is 2.04 nM. For the same molecule, on human NK1 receptor [2], the remaining activity at 1 µM was 6.6%.

As for `Cc1cc(F)ccc1[C@H]1CN(C[C@H]2CC[C@H](C(=O)O)CC2)CCN1C(=O)N(C)[C@H](C)c1cc(C(F)(F)F)cc(C(F)(F)F)c1` [Example 8, trans-4-[(S)-4-{[(R)-1-(3,5-Bistrifluoromethylphenyl)ethyl]methylcarbamoyl}-3-(4-fluoro-2-methylphenyl)piperazin-1-ylmethyl]cyclohexanecarboxylic acid], the IC50 at human NK1 receptor [1] is 1.86 nM. The remaining activity at 1 µM at human NK1 receptor [2] stood at 14%.

For `Cc1cc(F)ccc1[C@H]1CN(Cc2ccc(CC(=O)O)cc2)CCN1C(=O)N(C)[C@H](C)c1cc(C(F)(F)F)cc(C(F)(F)F)c1` [Example 9, {4-[(S)-4-{[(R)-1-(3,5-Bistrifluoromethylphenyl)ethyl]methylcarbamoyl}-3-(4-fluoro-2-methylphenyl)piperazin-1-ylmethyl]phenyl}acetic acid], at human NK1 receptor [1], the IC50 was 1.55 nM. In addition, on human NK1 receptor [2], the remaining activity at 1 µM stood at 38%.

Consider `Cc1cc(F)ccc1[C@H]1CN(C(=O)N2CCC(CC(=O)O)CC2)CCN1C(=O)N(C)[C@H](C)c1cc(C(F)(F)F)cc(C(F)(F)F)c1` [Example 10, {1-[(S)-4-{[(R)-1-(3,5-Bistrifluoromethylphenyl)ethyl]methylcarbamoyl}-3-(4-fluoro-2-methylphenyl)piperazine-1-carbonyl]piperidin-4-yl}acetic acid], for which, at human NK1 receptor [1], the IC50 was 1.17 nM. Moreover, at human NK1 receptor [2], the remaining activity at 1 µM was found to be 30%.
